Reference: patent US7097825B2, “Methods and reagents to acquire MRI signals and images” (Allos Therapeutics, Inc., priority 2001, dated 2006)

Legend:
[1] = tested on: NCI-H460 human large cell lung carcinoma xenografts; experiment: Tumor growth delay, RSR13 and/or radiation; type: in vivo, athymic nude mice; settings: for Tumor growth delay: n=4
Method: (§1) NCI-H460 human large cell lung carcinoma cells were obtained from the American Type Culture Collection (ATCC). H460 cells were cultured at 37° C., 5% CO2 in RPMI 1640 medium (Gibco BRL, Gaithersburg, Md.)+10% fetal bovine serum (Gibco)+50 U/ml penicillin (Gibco)+50 μg/ml streptomycin (Gibco). Cells were routinely passaged using 0.05% trypsin-EDTA. Human NIH-H460 cells were used as a xenograft model in female athymic nude mice (nu/nu, 5–6 weeks old). Cells at 80% confluence were trypsinized, resuspended in growth medium, and counted. Cells were then centrifuged and resuspended in 37° C. PBS at 2×10^7 cells/ml. A suspension of 2×10^6 cells in a 0.1 ml volume was injected subcutaneously (s.c.) into the left posterior flank. Tumors were allowed to grow for 2 weeks (about 1 cm^3) before imaging, or for 7 days prior to treatment with RSR13 and radiation.
Tumors on the flanks of mice were irradiated using an Eldorado-8 ^60Co γ irradiator (Neutron Products, Inc., Dickerson, Md.). The dose rate was 1.18 Gy/min, at an SSD of 56.5 cm. The non-tumor parts of mice were shielded using lead blocks. Mice were irradiated using restraining devices constructed from 50 ml conical polyethylene tubes taped to a Styrofoam pad. Mice were irradiated 30 min after administration of RSR13 (given by intraperitoneal injection).
Tumors were measured three times weekly in two perpendicular dimensions using Vernier calipers. Volumes were calculated using the formula: volume=0.4* ab^2 (a=long dimension, b=short dimension). Treatment began when tumors reached an average volume of about 0.3 cm^3. Growth delay time (GD) was calculated as the time for treated tumors to double in volume minus the time for control tumors to double in volume, with t=0 defined as the first day of treatment. Treatment groups consisted of either untreated control, radiation alone, RSR13 alone, or RSR13 plus radiation. Each treatment group contained four mice.
A paired t-test was applied to test the differences between baseline and follow-up time points. […]

hemoglobin = molecular target: T1, hemoglobin (Mus musculus, UniProt P01942+P02088); settings: 20–40 min after 300 mg/kg RSR13 injection into mice; cited from earlier work
T1 construct: after a 300 mg/kg RSR13 injection into mice; host or cells: blood (erythrocytes) of mice injected with RSR13; endogenous hemoglobin

[2] = tested on: NCI-H460 human large cell lung carcinoma xenografts; experiment: BOLD MRI signal ratio in tumors after RSR13 injection; type: in vivo, athymic nude mice; settings: for Change in BOLD MRI signal: (Intensity (t = 30 min)/Intensity (t = 0)): 30 min after injection, preliminary
Method: as §1
Mice with tumors were anesthetized with 0.05 cc of a ketamine (100 mg/ml) and acepromezine (2.5 mg/0.25 ml) cocktail (induction anesthesia). A 24G angiocath, attached to a syringe with the appropriate amount of RSR13, was then placed and secured intraperitoneally (i.p.). Mice were placed in a pre-warmed anesthesia chamber and the surface coil was positioned over the tumor. The entire assembly was then placed into a Varian 4.7T small bore MR scanner. The anesthesia chamber was then infused with a mixture of 98.5% room air and 1.5% isoflurane (maintenance anesthesia) at a rate of 1.5 L/min throughout the experiment. After scout images were obtained to localize the tumor, serial gradient echo images were obtained at ten-minute intervals over a total of 60 minutes. RSR13 was supplied as a 20-mg/ml stock solution, which was diluted with sterile phosphate-buffered saline (PBS) prior to experiments to achieve the desired dose (mg/kg) per […]. At the start of acquisition of the second image (“time 0”), a dose of RSR13 was injected i.p. RSR13 doses were administered in 0.3 ml volumes; control mice were given injections of saline. Preliminary experiments were performed to optimize the BOLD contrast, first by imaging mouse tumors without any drug, and then by administering different doses of RSR13. A dose of 200 mg/kg was then chosen for further studies. Parameters for BOLD-MRI scans were chosen to maximize sensitivity to oxygen dependent changes in the relaxation parameter T2*. The following MRI parameters were used: TR=520 ms, TE=27 ms, flip angle=45°, 18 signal averages, 230 μm spatial resolution, matrix=128×128, bandwidth=37.4 kHz, field of view=3×3 cm. Color maps indicating percent increase in signal relative to the baseline gradient echo image were created for each image. Color maps were overlaid on corresponding spin echo images for anatomic reference. After images were acquired, each individual tumor (at t=30 min.) was examined slice by slice, and a single slice which was most representative of the entire tumor was chosen. Within each representative slice, a 15×15-pixel regions of interest (ROI) was drawn around the area of maximum signal intensity (about 25% of the tumor slice area). The voxel size was 0.23 mm×0.23 mm×1 mm; thus the slice thickness was 1 mm. The same slice and ROI were then used to calculate the signal ratio corresponding to the other times for the same tumor. The following signal ratio was calculated: Intensity (t)/Intensity (t=0 min). Based on the signal parameters listed above, the MRI signal intesnsity is proportional to the MR relaxation time, T*2, which is linearly related to the level of oxygen saturation. See, e.g. Ogawa, et al., Magn. Reson. Med. 29:205–10 (1993). Images were analyzed in a blind fashion in the dose dependence studies, without knowledge of the drug doses used, to eliminate observer bias.
A paired t-test was applied to test the differences between baseline and follow-up time points. All tests of significance were two-sided, and differences were considered statistically significant when the P value was≦0.05. […]

tumors = settings: previous studies, fractionated radiotherapy; cited from earlier work

T1 sequence (P01942 2-142 limits assumed): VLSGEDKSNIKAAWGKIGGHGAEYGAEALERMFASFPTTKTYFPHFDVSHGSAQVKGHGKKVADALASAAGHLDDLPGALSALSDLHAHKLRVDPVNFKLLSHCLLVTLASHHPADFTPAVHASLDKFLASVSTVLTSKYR
T1 sequence (P02088 2-147 limits assumed): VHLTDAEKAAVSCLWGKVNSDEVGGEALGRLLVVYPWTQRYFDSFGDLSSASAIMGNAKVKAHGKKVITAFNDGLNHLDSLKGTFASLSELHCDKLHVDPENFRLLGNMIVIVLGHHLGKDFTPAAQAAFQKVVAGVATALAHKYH

For Cc1cc(C)cc(NC(=O)Cc2ccc(OC(C)(C)C(=O)O)cc2)c1 [RSR13, 2-[4-(((3,5-dimethylanilino)carbonyl)methyl)phenoxy]-2-methylpropionic acid], the “Enhancement factor (growth delay RSR13 plus radiation / radiation alone)” value ([1]; 6.6/2.4, 200 mg/kg, 10 Gy 30 min later) was 2.8, the Tumor growth delay ([1]; RSR13 200 mg/kg i.p. plus radiation 10 Gy given 30 min later, radiation alone 2.4 days) was 6.6 days and the Tumor growth delay ([1]; RSR13 alone, 200 mg/kg i.p.) was “did not affect tumor growth delay”. For the same compound, the “Mean increase of pO2 at 50% hemoglobin saturation” value (hemoglobin) was 53%, the “Increase of MRI signal ratio between t=10 and 30 min” value ([2]; 200 mg/kg i.p., n=8, P=0.04) was 14% and the “Increase of MRI signal ratio between t=10 and 20 min” value ([2]; 200 mg/kg i.p., n=8, P=0.05) was 9%. For the same compound, the “Changes of MRI signal ratio between t=10 and 40, 50, or 60 min” value ([2]; 200 mg/kg i.p., n=8, P≧0.05) was “not statistically significant”, the “Time of maximum MRI signal ratio after RSR13 injection” value ([2]; 200 mg/kg i.p., n=8 mice) was 30 min and the “Increase in signal in tumor tissue ROI, normalized to signal at time zero” value ([2]; FIG. 9, H460 tumor ROI 1, about two hours after time zero injection) was ~20%. The “Change in BOLD MRI signal: (Intensity (t = 30 min)/Intensity (t = 0))” value (from here on “Change in BOLD MRI signal”) ([2]; RSR13 100 mg/kg i.p., 1 mouse (Mouse B)) was 1.13, the “Change in BOLD MRI signal” value ([2]; RSR13 200 mg/kg i.p., 1 mouse (Mouse C)) was 1.20 and the “Change in BOLD MRI signal” value ([2]; RSR13 300 mg/kg i.p., 1 mouse (Mouse D)) was 1.19. For the same compound, the “Dose at which the signal ratio reached a plateau” value ([2]; doses 0, 100, 200, 300 mg/kg, t=30 min) was 200 mg/kg and the “Enhancement ratios (dose modifying factors)” value (tumors) was 1.3–1.8.
